Values of other authors, collected in US9968649B2, “Vasopressin formulations for use in treatment of hypotension” (Par Pharmaceutical, Inc., priority 2015, dated 2018).

Test system: healthy subjects
Conditions: cited from earlier work

## COc1ccc2c(c1)c(CC(=O)O)c(C)n2C(=O)c1ccc(Cl)cc1 [Indomethacin]
co-administered with vasopressin, healthy subjects
  time to offset for vasopressin's effect on peripheral vascular resistance and cardiac output: more than doubles

## CC[N+](CC)(CC)CC [tetra-ethylammonium]
Healthy subjects
  increase of the pressor effect of vasopressin: 20%

## FC(F)(F)C(Cl)Br (stereo not shown) [Halothane]
In vivo
  impact on exposure to endogenous vasopressin: do not impact exposure

## NS(=O)(=O)c1cc(C(=O)O)c(NCc2ccco2)cc1Cl [Furosemide]
co-administered with exogenous vasopressin, healthy subjects
  increase of urine flow: 9 fold
